Consider 17 molecules from patent US10975037B2 (priority 2018, dated 2021).

Read-outs that look alike come from different tables or passages of the source.

For assay [1], the target named is human RORγt ligand binding domain (RORγt LBD) (Homo sapiens (Human), UniProt P51449). The experiment in a line: RORγt ThermoFluor® assay (thermal shift binding). The essentials: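 Thermal shift with 0.065 mg/mL RORγt LBD and 60 μM 1,8-ANS in 100 mM Hepes pH 7.0, 10 mM NaCl, 2.5 mM GSH, 0.002% Tween-20.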
A further assay addresses full-length human RORγt (Homo sapiens (Human), UniProt P51449). The experiment in a line: RORγt (full-length human) reporter assay, conditions A or B, HEK293T cells. The format is cell-based. Particulars: for inhibition at 6 µM / inhibition at […] / inhibition at 2 µM / inhibition at 3 µM: HEK-293T; for inhibition at 6 µM: read-out: RORγt (FL) Reporter Assay A or B, % inhibition @ 6 μM, 6 μM compound concentration; for IC50: RORγt (FL) Reporter Assay A or B, IC50, HEK293T cells; for inhibition at […] / inhibition at 2 µM / inhibition at 3 µM: read-out: RORγt (FL) Reporter Assay A or B, % inhibition; for inhibition at 2 µM: 2 μM compound concentration; for inhibition at 3 µM: 3 μM compound concentration (footnote *). A digest of the protocol:
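After 16–20 h, dual firefly/Renilla luciferase luminescence was read. Firefly signal was normalized to DMSO and saturating reference compound, then to Renilla, and fitted for IC50; % inhibition is versus DMSO.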
(Reporter assays use an easily measured gene product as a stand-in for the process of interest.)

Where [2] appears, read: read-out: ThermoFluor® Assay, Kd.

human RORγt ligand binding domain (RORγt LBD), sequence (P51449 other isoform, or with tags, fused parts or gaps): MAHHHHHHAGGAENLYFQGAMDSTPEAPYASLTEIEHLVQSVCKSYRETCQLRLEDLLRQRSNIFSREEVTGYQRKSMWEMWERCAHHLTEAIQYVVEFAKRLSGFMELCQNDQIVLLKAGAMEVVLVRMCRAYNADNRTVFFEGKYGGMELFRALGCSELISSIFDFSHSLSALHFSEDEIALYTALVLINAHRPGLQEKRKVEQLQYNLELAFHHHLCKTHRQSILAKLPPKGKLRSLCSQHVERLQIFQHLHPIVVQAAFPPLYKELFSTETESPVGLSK
full-length human RORγt, sequence (P51449 other isoform, or with tags, fused parts or gaps): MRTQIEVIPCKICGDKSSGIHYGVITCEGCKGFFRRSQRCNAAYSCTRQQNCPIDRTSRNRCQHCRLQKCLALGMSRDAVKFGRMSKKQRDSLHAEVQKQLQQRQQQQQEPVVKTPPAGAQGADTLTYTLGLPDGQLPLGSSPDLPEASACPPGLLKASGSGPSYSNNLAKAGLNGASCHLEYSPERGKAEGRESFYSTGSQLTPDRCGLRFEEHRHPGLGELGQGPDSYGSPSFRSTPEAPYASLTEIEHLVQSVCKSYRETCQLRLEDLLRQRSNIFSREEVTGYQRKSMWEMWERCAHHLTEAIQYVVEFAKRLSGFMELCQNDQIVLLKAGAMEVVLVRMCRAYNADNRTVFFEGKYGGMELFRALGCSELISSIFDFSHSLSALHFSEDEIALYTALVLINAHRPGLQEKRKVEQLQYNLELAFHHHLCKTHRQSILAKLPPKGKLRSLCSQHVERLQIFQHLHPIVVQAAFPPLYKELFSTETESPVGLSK

Broadly, the Kd is the free concentration of one partner at which half of the binding sites on the other are occupied at equilibrium, for simple one-to-one binding. Broadly, the inhibition is the change of the read-out against control, counted positive when it falls. One may read the IC50 as the concentration at which inhibition is half-maximal. Consider `CCn1nc(C(=O)NC[C@H]2CC[C@H](S(C)(=O)=O)CC2)c(Cl)c1-c1ccc(N[C@H](C)C(F)(F)F)cc1OC(C)C` [Example 207, 4-Chloro-1-ethyl-5-(2-isopropoxy-4-(((R)-1,1-trifluoropropan-2-yl)amino)phenyl)-N-(((1r,4R)-4-(methylsulfonyl)cyclohexyl)methyl)-1H-pyrazole-3-carboxamide], for which the Kd in assay [1] (setting [2]) amounted to 10 nM. On full-length human RORγt, the inhibition at 6 µM was found to be 101% and it took 40 nM to reach half-maximal inhibition (IC50).

As to `CCn1nc(C(=O)NC[C@H]2CC[C@H](S(C)(=O)=O)CC2)c(Cl)c1-c1ccc(C[C@H](C)C(F)(F)F)cc1OC(F)F` (single isomer, unassigned) [Example 55, 4-Chloro-5-(2-(difluoromethoxy)-4-((S*)-3,3,3-trifluoro-2-methylpropyl)phenyl)-1-ethyl-N-(((1r,4S)-4-(methylsulfonyl)cyclohexyl)methyl)-1H-pyrazole-3-carboxamide], the Kd in assay [1] (ThermoFluor® Assay, Kd) was 0.35 nM. Also, the inhibition at […] on full-length human RORγt (0.11 μM compound concentration (footnote ********)) worked out at 94%. Inhibition at full-length human RORγt was half-maximal at 10 nM (IC50).

Consider `COCCn1nc(C(=O)NC[C@]2(O)CC[C@@H](S(C)(=O)=O)CC2)c(Cl)c1-c1ccc(CC(C)(C)C(F)(F)F)cc1OC(F)F` [Example 149, 4-Chloro-5-(2-(difluoromethoxy)-4-(3,3,3-trifluoro-2,2-dimethylpropyl)phenyl)-N-(((1s,4s)-1-hydroxy-4-(methylsulfonyl)cyclohexyl)methyl)-1-(2-methoxyethyl)-1H-pyrazole-3-carboxamide], for which the Kd in assay [1] (setting [2]) is 0.83 nM. For the same molecule, at full-length human RORγt, the inhibition at 2 µM worked out at 99% and inhibition was half-maximal at 6 nM (IC50).

`CCn1nc(C(=O)NC[C@H]2CC[C@H](S(N)(=O)=O)CC2)c(C)c1-c1ccc(C[C@H](C)C(F)(F)F)cc1OC(F)F` (single isomer, unassigned) [Example 59, 5-(2-(difluoromethoxy)-4-((S*)-3,3,3-trifluoro-2-methylpropyl)phenyl)-1-ethyl-4-methyl-N-(((1r,4S)-4-sulfamoylcyclohexyl)methyl)-1H-pyrazole-3-carboxamide]: in assay [1] (ThermoFluor® Assay, Kd), the Kd stood at 1.2 nM. Moreover, the inhibition at […] on full-length human RORγt (0.33 μM compound concentration (footnote *****)) was found to be 93%. In addition, 19 nM corresponded to half-maximal inhibition on full-length human RORγt (IC50).

As to `CCn1nc(C(=O)NC[C@H]2CC[C@H](S(C)(=O)=O)CC2)c(Cl)c1-c1ccc(N[C@H](C)C(F)(F)F)cc1OC(F)(F)F` [Example 190, 4-Chloro-1-ethyl-N-(((1r,4R)-4-(methylsulfonyl)cyclohexyl)methyl)-5-(2-(trifluoromethoxy)-4-(((R)-1,1,1-trifluoropropan-2-yl)amino)phenyl)-1H-pyrazole-3-carboxamide], the Kd in assay [1] (setting [2]) turned out to be 1.2 nM. Moreover, on full-length human RORγt, the inhibition at 2 µM came out at 104% and the IC50 was determined as 21 nM.

Take `Cn1nc(C(=O)NC[C@@]2(O)CC[C@H](S(C)(=O)=O)C[C@@H]2O)c(Cl)c1-c1ccc(CCCC(F)(F)F)cc1OC(F)F` (stereo in doubt) [Example 159, 4-Chloro-5-(2-(difluoromethoxy)-4-(4,4,4-trifluorobutyl)phenyl)-N-(((1S*,2S*,4S*)-1,2-dihydroxy-4-(methylsulfonyl)cyclohexyl)methyl)-1-methyl-1H-pyrazole-3-carboxamide]: the Kd in assay [1] (ThermoFluor® Assay, Kd) amounted to 41 nM. Further, at full-length human RORγt, the inhibition at 3 µM came to 73% and half-maximal inhibition (IC50) required 39 nM.

Turning to `CCCn1nc(C(=O)NC[C@]2(O)CC[C@@H](S(C)(=O)=O)CC2)c(Cl)c1-c1ccc(C[C@H](C)C(F)(F)F)cc1OC` (single isomer, unassigned) [Example 40, 4-Chloro-N-(((1s,4R)-1-hydroxy-4-(methylsulfonyl)cyclohexyl)methyl)-5-(2-methoxy-4-((S*)-3,3,3-trifluoro-2-methylpropyl)phenyl)-1-propyl-1H-pyrazole-3-carboxamide], the Kd in assay [1] (ThermoFluor® Assay, Kd) is 0.71 nM. At full-length human RORγt, the inhibition at 2 µM turned out to be 99% and the IC50 came out at 13 nM.

As for `CCn1nc(C(=O)NC[C@]2(O)CC[C@@H](S(C)(=O)=O)CC2)c(Cl)c1-c1ccc(CC(C)C)cc1OC` [Example 73, 4-Chloro-1-ethyl-N-(((1s,4s)-1-hydroxy-4-(methylsulfonyl)cyclohexyl)methyl)-5-(4-isobutyl-2-methoxyphenyl)-1H-pyrazole-3-carboxamide], the Kd in assay [1] (setting [2]) was determined as 0.63 nM. In addition, on full-length human RORγt, the inhibition at 2 µM was 61% and the IC50 stood at 11 nM.

Consider `CCn1nc(C(=O)NC[C@]2(O)CC[C@@H](S(C)(=O)=O)CC2)c(Cl)c1-c1ccc(C2(O)CCC(F)(F)CC2)cc1OC(F)F` [Example 104, 4-Chloro-5-(4-(4,4-difluoro-1-hydroxycyclohexyl)-2-(difluoromethoxy)phenyl)-1-ethyl-N-(((1s,4s)-1-hydroxy-4-(methylsulfonyl)cyclohexyl)methyl)-1H-pyrazole-3-carboxamide], for which the dissociation constant (Kd) in assay [1] (setting [2]) came out at 47 nM. For the same molecule, at full-length human RORγt, the inhibition at 3 µM was determined as 98% and the IC50 came out at 220 nM.

In the case of `CCn1nc(C(=O)NC[C@]2(O)CC[C@@H](S(C)(=O)=O)CC2)c(Cl)c1-c1ccc([C@@](C)(O)CC(F)(F)F)cc1OC(F)F` (single isomer, unassigned) [Example 99, 4-Chloro-5-(2-(difluoromethoxy)-4-((S*)-4,4,4-trifluoro-2-hydroxybutan-2-yl)phenyl)-1-ethyl-N-(((1s,4R)-1-hydroxy-4-(methylsulfonyl)cyclohexyl)methyl)-1H-pyrazole-3-carboxamide], in assay [1] (ThermoFluor® Assay, Kd), the Kd turned out to be 230 nM. In addition, on full-length human RORγt, the inhibition at 3 µM is -21% and half-maximal inhibition (IC50) was put at 2600 nM.

With `CCn1nc(C(=O)NC[C@]2(C(=O)O)CC[C@@H](S(C)(=O)=O)CC2)c(Cl)c1-c1ccc(CC(C)(C)C(F)(F)F)cc1OC(F)F` [Example 119, (1s*,4s*)-1-((4-Chloro-5-(2-(difluoromethoxy)-4-(3,3,3-trifluoro-2,2-dimethylpropyl)phenyl)-1-ethyl-1H-pyrazole-3-carboxamido)methyl)-4-(methylsulfonyl)cyclohexane-1-carboxylic Acid], the Kd in assay [1] (ThermoFluor® Assay, Kd) came out at 1500 nM. Moreover, on full-length human RORγt, the inhibition at 6 µM is 14% and the IC50 was more than 6000 nM.

`Cn1nc(C(=O)NC[C@]2(O)CC[C@@H](S(C)(=O)=O)CC2)c(Cl)c1-c1ccc(CCCC(F)(F)F)cc1OC(F)F` [Example 158, 4-Chloro-5-(2-(difluoromethoxy)-4-(4,4,4-trifluorobutyl)phenyl)-N-(((1s,4s)-1-hydroxy-4-(methylsulfonyl)cyclohexyl)methyl)-1-methyl-1H-pyrazole-3-carboxamide]: the Kd in assay [1] (setting [2]) was determined as 16 nM. For the same molecule, at full-length human RORγt, the inhibition at 3 µM stood at 111% and the IC50 stood at 3.4 nM.

As to `CCn1nc(C(=O)NC[C@H]2CC[C@H](S(C)(=O)=O)CC2)c(C(C)C)c1-c1ccc(N[C@H](C)C(F)(F)F)cc1OC` [Example 131, 1-Ethyl-4-isopropyl-5-(2-methoxy-4-(((R)-1,1,1-trifluoropropan-2-yl)amino)phenyl)-N-(((1r,4R)-4-(methylsulfonyl)cyclohexyl)methyl)-1H-pyrazole-3-carboxamide], the dissociation constant Kd in assay [1] (setting [2]) is 33 nM. Besides, on full-length human RORγt, the inhibition at 2 µM was determined as 100% and half-maximal inhibition (IC50) required 140 nM.

In the case of `CCn1nc(C(=O)NC[C@]2(O)CC[C@@H](S(C)(=O)=O)CC2)c(Cl)c1-c1ccc(N[C@H](C)C(F)(F)F)cc1OC` [Example 24, 4-Chloro-1-ethyl-N-(((1s,4S)-1-hydroxy-4-(methylsulfonyl)cyclohexyl)methyl)-5-(2-methoxy-4-(((R)-1,1,1-trifluoropropan-2-yl)amino)phenyl)-1H-pyrazole-3-carboxamide], the Kd in assay [1] (setting [2]) stood at 21 nM. Moreover, at full-length human RORγt, the inhibition at 2 µM came out at 104% and the midpoint of inhibition, the IC50, lay at 52 nM.

For the molecule `CCn1nc(C(=O)NC[C@H]2CC[C@H](S(C)(=O)=O)CC2)c(Cl)c1-c1ccc(CCC(F)(F)F)cc1F` [Example 179, 4-Chloro-1-ethyl-5-(2-fluoro-4-(3,3,3-trifluoropropyl)phenyl)-N-(((1r,4r)-4-(methylsulfonyl)cyclohexyl)methyl)-1H-pyrazole-3-carboxamide], the Kd in assay [1] (setting [2]) came to 15 nM. Besides, at full-length human RORγt, the inhibition at 2 µM stood at 52% and the concentration for half-maximal inhibition (IC50) turned out to be 69 nM.

With `CCn1nc(C(=O)NC[C@H]2CC[C@H](S(C)(=O)=O)CC2)c(Cl)c1-c1ccc(OC(C)C(F)(F)F)cc1OC` (stereo partly drawn) [Example 212, 4-Chloro-1-ethyl-5-(2-methoxy-4-((1,1,1-trifluoropropan-2-yl)oxy)phenyl)-N-(((1r,4r)-4-(methylsulfonyl)cyclohexyl)methyl)-1H-pyrazole-3-carboxamide], the Kd in assay [1] (setting [2]) came out at 7.4 nM. In addition, on full-length human RORγt, the inhibition at 2 µM stood at 81% and it took 33 nM to reach half-maximal inhibition (IC50).

Consider `CCc1cc(N[C@H](C)C(F)(F)F)ccc1-c1c(Cl)c(C(=O)NC[C@H]2CC[C@H](S(C)(=O)=O)CC2)nn1CC` [Example 206, 4-Chloro-1-ethyl-5-(2-ethyl-4-(((R)-1,1,1-trifluoropropan-2-yl)amino)phenyl)-N-(((1r,4R)-4-(methylsulfonyl)cyclohexyl)methyl)-1H-pyrazole-3-carboxamide], for which the equilibrium dissociation constant (Kd) in assay [1] (setting [2]) is 7 nM. Besides, on full-length human RORγt, the inhibition at 2 µM was determined as 100% and inhibition was half-maximal at 31 nM (IC50).
